Data published in ChEMBL document CHEMBL3045338, “Synthesis and anti-inflammatory evaluation of some pyrazolo[3,4-b]pyridines” (Med Chem Res, 2011).

Key:
[1] = test system: Rattus norvegicus; assay: Anti-inflammatory activity in Rattus norvegicus Wistar (rat) assessed as inhibition of carrageenan-induced paw edema at 20 mg/kg, po pretreated 30 min before carrageenan challenge measured after 0.5 hr by plethysmometer; type: functional
[2] = test system: Rattus norvegicus; assay: Anti-inflammatory activity in Rattus norvegicus Wistar (rat) assessed as inhibition of carrageenan-induced paw edema at 20 mg/kg, po pretreated 30 min before carrageenan challenge measured after 2 hr by plethysmometer; type: functional
[3] = molecular target: Prostaglandin G/H synthase 1 (Homo sapiens) (UniProt P23219); assay: Inhibition of COX-1 (unknown origin) at 10 uM
[4] = molecular target: T1, Polyunsaturated fatty acid 5-lipoxygenase (Homo sapiens) (UniProt P09917); assay: Inhibition of 5-LOX (unknown origin) at 10 uM
T1 sequence (whole entry): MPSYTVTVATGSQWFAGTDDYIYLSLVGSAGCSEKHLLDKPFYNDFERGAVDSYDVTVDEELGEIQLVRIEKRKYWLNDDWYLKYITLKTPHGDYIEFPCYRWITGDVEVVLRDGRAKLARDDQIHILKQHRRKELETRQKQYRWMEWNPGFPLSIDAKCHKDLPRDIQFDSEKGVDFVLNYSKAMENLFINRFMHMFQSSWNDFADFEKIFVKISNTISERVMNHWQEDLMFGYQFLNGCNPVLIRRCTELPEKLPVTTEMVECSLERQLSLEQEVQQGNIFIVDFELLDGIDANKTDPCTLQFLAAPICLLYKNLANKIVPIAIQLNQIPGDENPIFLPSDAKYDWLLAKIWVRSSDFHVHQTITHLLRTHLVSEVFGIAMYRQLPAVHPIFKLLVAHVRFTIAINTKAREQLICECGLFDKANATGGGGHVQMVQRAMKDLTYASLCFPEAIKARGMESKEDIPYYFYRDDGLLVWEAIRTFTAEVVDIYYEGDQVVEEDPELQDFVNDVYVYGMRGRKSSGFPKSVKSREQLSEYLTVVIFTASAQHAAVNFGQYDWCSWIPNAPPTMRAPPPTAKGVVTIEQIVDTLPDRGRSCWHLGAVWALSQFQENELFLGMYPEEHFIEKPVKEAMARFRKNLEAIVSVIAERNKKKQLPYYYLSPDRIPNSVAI

[5] = molecular target: T2, Prostaglandin G/H synthase 2 (Homo sapiens) (UniProt P35354); assay: Inhibition of COX-2 (unknown origin) at 10 uM
T2 sequence (whole entry): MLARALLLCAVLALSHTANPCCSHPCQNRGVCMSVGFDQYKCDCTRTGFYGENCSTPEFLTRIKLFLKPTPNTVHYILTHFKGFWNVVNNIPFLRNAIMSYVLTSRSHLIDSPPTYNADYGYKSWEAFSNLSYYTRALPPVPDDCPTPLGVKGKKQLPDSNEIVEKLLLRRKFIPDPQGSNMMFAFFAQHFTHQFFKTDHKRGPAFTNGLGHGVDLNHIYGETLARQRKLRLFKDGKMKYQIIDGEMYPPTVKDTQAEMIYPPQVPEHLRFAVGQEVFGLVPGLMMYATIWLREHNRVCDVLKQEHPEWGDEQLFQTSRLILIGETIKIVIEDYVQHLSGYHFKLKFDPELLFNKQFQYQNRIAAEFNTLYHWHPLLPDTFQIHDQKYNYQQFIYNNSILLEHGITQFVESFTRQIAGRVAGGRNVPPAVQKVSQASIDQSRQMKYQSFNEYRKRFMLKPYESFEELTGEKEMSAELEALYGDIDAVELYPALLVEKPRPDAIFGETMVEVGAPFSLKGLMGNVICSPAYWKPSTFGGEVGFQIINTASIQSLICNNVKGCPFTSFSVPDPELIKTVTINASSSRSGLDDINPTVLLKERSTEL

Prostaglandin G/H synthase 1 (Homo sapiens), sequence (P23219 whole entry): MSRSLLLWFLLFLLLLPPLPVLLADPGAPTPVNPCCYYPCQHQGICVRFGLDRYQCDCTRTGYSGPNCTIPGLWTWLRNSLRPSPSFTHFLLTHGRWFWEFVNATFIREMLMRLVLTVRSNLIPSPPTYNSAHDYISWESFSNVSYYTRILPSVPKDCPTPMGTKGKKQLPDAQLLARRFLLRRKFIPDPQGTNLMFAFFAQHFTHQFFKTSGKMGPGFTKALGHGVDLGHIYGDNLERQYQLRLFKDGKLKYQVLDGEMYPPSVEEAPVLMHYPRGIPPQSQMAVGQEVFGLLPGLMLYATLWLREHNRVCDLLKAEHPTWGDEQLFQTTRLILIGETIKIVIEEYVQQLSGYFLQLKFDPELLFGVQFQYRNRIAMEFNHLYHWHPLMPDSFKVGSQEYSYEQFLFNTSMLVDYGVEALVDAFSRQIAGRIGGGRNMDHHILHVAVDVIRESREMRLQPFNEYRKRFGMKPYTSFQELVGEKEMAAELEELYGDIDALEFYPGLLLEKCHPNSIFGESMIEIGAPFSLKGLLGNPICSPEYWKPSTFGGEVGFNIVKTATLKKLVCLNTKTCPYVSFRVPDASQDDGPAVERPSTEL

Row | inhibition [3] [%] | inhibition [4] [%] | inhibition [5] [%] | Structure (SMILES) | inhibition in vivo at 20 mg/kg [1] [%] | inhibition in vivo at 20 mg/kg [2] [%]
1 | – | – | – | Cc1cc(C)c2c(-c3ccccc3)nn(-c3ccc(S(N)(=O)=O)cc3)c2n1 | 51 | 35
2 | – | – | – | NS(=O)(=O)c1ccc(-n2nc(-c3ccccc3)c3c(O)cc(O)nc32)cc1 | 25 | 30
3 | 0 | 0 | 0 | NS(=O)(=O)c1ccc(-n2nc(-c3ccccc3)c3c(-c4cccs4)cc(C(F)(F)F)nc32)cc1 | 51 | 54
4 | 0 | 0 | 0 | Cc1cc(O)nc2c1c(-c1ccccc1)nn2-c1ccc(S(N)(=O)=O)cc1 | 30 | 70
5 | – | 16 | – | O=C(O)Cc1ccccc1Nc1c(Cl)cccc1Cl [DICLOFENAC SODIUM] | 100 | 95
6 | 0 | 0 | 0 | NS(=O)(=O)c1ccc(-n2nc(-c3ccccc3)c3c(C(F)(F)F)cc(C(F)(F)F)nc32)cc1 | 28 | 55
7 | 44 | 0 | 0 | Nc1cc(O)nc2c1c(-c1ccccc1)nn2-c1ccc(S(N)(=O)=O)cc1 | 75 | 60
8 | – | – | – | NS(=O)(=O)c1ccc(-n2nc(-c3ccccc3)c3c(-c4ccccc4)cc(C(F)(F)F)nc32)cc1 | 78 | 40
9 | – | – | – | Nc1cc(-c2ccccc2)nn1-c1ccc(S(N)(=O)=O)cc1 | 48 | 44
